This assay relates to chPylRS. Briefly: aminoacylation of […]-labeled tRNA. The assay is classed as biochemical, Methanosarcina mazei; Methanosarcina barkeri. To be noted: read-out: KM (mM), ncAA; M. mazei tRNA(Pyl) transcript, 10 mM ATP, 10 mM MgCl2, pH 7.2, 37 °C.

SMILES strings stand for the structures.

For the compound `C[C@@H]1CC=N[C@H]1C(=O)NCCCC[C@H](N)C(=O)O` [compound 1, Pyl], the Michaelis-Menten constant (Km) was found to be 0.0076 ± 0.0002 mM.

Take `CC(C)(C)OC(=O)NCCCC[C@H](N)C(=O)O` [compound 12, BocK]: the Km was determined as 2.91 ± 0.1 mM.

The record behind these values is article PMC5698177 (Nature chemical biology, 2017).
